Counter-ions that a name gives are not always drawn.
What was measured:
in vivo = conditions: rat, ip
[1] = Alleviation of coughing caused by 15% citric acid spray on guinea pig, oral administration; type: in vivo; conditions: for ED50: Cavia porcellus, po; for absolute strength of the antitussive effect, in words: Table I
Protocol: The aforesaid facts are supported by Table I wherein the ID50 mg/kg values of 3,7-dihydro-3-methyl-7-[(5-methyl-1,2,4-oxadiazole-3-yl)-methyl]-1H-purine-2,6-dione (the most simple representative of the compounds of the Formula I); two known 1,2,4-oxadiazole-type antitussive agents, codeine and dextromethorphane (morphine type reference compounds) in the alleviation of coughing caused by a 15% citric acid spray are disclosed. […] As test animal guinea pigs are used. (Method: Arzneimittel Forschung 1966, 617-621). Test compound No. 5 is 2-(3-methyl-xanthine-7-yl)-acetamidoxime (a starting material of the Formula II).
Alleviation of coughing caused by 15% citric acid spray on
guinea pig, the test compounds are administered orally
Antitussive effect of p.o. administered 3,7-dihydro-3-methyl-7-
[(5-methyl-1,2,4-oxadiazole-3-yl)-methyl]-lH--purine-2,6-dione
on coughing induced by 15% citric acid spray on guinea pig

[2] = Coughing caused by mechanical stimulation of the trachea bifurcatio on rabbits narcotised by nembutal, i.v. administration; type: in vivo, rabbit
[3] = 1 hour pre-treatment, 15% citric acid spray, read-out: Antitussive effect, measured 1 hour after oral administration ID50

Cc1nc(Cn2cnc3c2c(=O)[nH]c(=O)n3C)no1 [Compound 1, 3,7-dihydro-3-methyl-7-[(5-methyl-1,2,4-oxadiazole-3-yl)-methyl]-1H-purine-2,6-dione] showed an LD50 (in vivo) of 700 mg/kg, an ED50 [1, 3] of 8.5 mg/kg and an ED50 ([1]; pre-treatment time 2.0 h, read-out: ID50, pre-treatment time 2.0 h) of 14.4 mg/kg. It also gave an ED50 ([1]; pre-treatment time 4.0 h, read-out: ID50, pre-treatment time 4.0 h) of 13.8 mg/kg, an ED50 ([1]; pre-treatment time 8.0 h, read-out: ID50, pre-treatment time 8.0 h) of 32.6 mg/kg and an ED50 ([1]; read-out: ID50, pre-treatment time 0.5 h, p.o., pre-treatment time 0.5 h) of 7.5 mg/kg. For the same compound, the “absolute strength of the antitussive effect, in words” value ([1]; p.o.) was “significantly higher than that of reference compounds Nos. 2-4 and 6”, the “duration of oral antitussive effect” value ([1]; p.o., Table I/A) was “very long-lasting” and the ED50 ([2]; Oryctolagus cuniculus, iv, 2 min, rabbit, i.v., 2 minutes after administration, calculated according to Lichfield-Wilcoxon) was 2.24 mg/kg. The “decrease of coughing caused by mechanical stimulation” value ([2]; rabbit, 0.5-8.0 mg/kg i.v.) was “decreases in dose-dependant manner” and the “therapeutical index relative to reference compounds Nos. 4 and 6” value ([2]; taking into consideration the I.O. toxicity data) was “ten times more favorable”.
Work on Cc1nc(Cn2cnc3c2c(=O)n(C)c(=O)n3C)no1 [Compound 2, 3,7-dihydro-1,3-dimethyl-7-[(5-methyl-1,2,4-oxadiazole-3-yl)-methyl]-1H--purine-2,6-dione, reference compound] yielded an ED50 [1, 3] of 111 mg/kg.
In the case of COc1ccc2c3c1O[C@H]1[C@@H](O)C=C[C@H]4[C@@H](C2)N(C)CC[C@@]341 [Compound 4, Codeine.HCl, reference compound], the LD50 (in vivo) is reported as 72.4 mg/kg and the “antitussive effect relative to compound No. 1” value ([2]; rabbit, i.v.) is reported as “the same or a somewhat lower antitussive effect”.
With Cn1c(=O)[nH]c(=O)c2c1ncn2CC(N)=NO [Compound 5, 2-(3-methyl-xanthine-7-yl)-acetamidoxime, reference compound] the “Antitussive effect at 50 mg/kg” value ([1]; 50 mg/kg p.o., 1 hour after administration) was “inactive” and the “absolute strength of the antitussive effect, in words” value ([1]; p.o.) was “practically negligible”.
With COc1ccc2c(c1)[C@]13CCCC[C@@H]1[C@H](C2)N(C)CC3 [Compound 6, Dextromethorphan, reference compound] the “antitussive effect relative to compound No. 1” value ([2]; rabbit, i.v.) was “the same or a somewhat lower antitussive effect”.

From patent publication US4840949A, “Oxadiazole-alkyl-purine derivatives useful as antitussive agents” (Chinoin Gyogyszer Es Vegyeszeti Termekek Gyara Rt., priority 1986, dated 1989)
